SMILES strings stand for the structures.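 Cells were grown in 96-well plates and exposed to each compound for 48 hours at five concentrations; endpoints were interpolated linearly between bracketing concentrations, or set to the highest concentration if not reached. GI50: concentration for 50% inhibition of growth. TGI: total growth inhibition.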

This note sets out measurements from PubChem BioAssay (NCI).

Some test systems named below: CCRF-CEM leukemia; HS 578T breast; SK-MEL-2 melanoma; UO-31 renal; IGROV1 ovarian; SN12C renal; SK-MEL-5 melanoma; M14 melanoma; HCC-2998 colon; HCT-116 colon.
What all share (assay): NCI tumour cell line growth inhibition, 48 h

Consider `COc1cc2c(cc1OCCCCCOc1cc3c(cc1OC)C(=O)N1CC(F)C[C@H]1C=N3)N=C[C@@H]1CC(F)CN1C2=O` (some centres undefined), for which the GI50 in the experiment on CCRF-CEM leukemia was less than 0.01 µM; in the experiment with HS 578T breast it was 0.0581 µM; in the experiment with SK-MEL-2 melanoma it was 0.279 µM; in the experiment on UO-31 renal, 0.315 µM; in the experiment on IGROV1 ovarian, 0.0599 µM; in the experiment with SN12C renal, less than 0.0427 µM. Besides, the results for the GI50 in the experiment with SK-MEL-5 melanoma, with M14 melanoma and in the experiment on HCC-2998 colon were 0.0511 µM, 0.0275 µM and 0.229 µM, respectively. For the same molecule, the TGI with CCRF-CEM leukemia is 0.0713 µM; in the experiment on HS 578T breast, 0.246 µM; with UO-31 renal it was 4.64 µM; in the experiment on SN12C renal, 0.952 µM; in the experiment on SK-MEL-5 melanoma it was 0.127 µM; in the experiment on M14 melanoma it was 0.272 µM. This molecule showed a TGI in the experiment on HCC-2998 colon of 2.89 µM.

Take `CC(C)(O)C#Cc1ccc(/C=C/C(=O)c2ccccc2)s1`: the GI50 with CCRF-CEM leukemia was 13.6 µM; in the experiment with HS 578T breast, 25.5 µM; in the experiment on SK-MEL-2 melanoma it was 17.6 µM; in the experiment with HCT-116 colon, 4.08 µM; in the experiment on UO-31 renal it was 14.5 µM; in the experiment on IGROV1 ovarian, 14.7 µM. Besides, the GI50 in the experiment with SN12C renal was 18.1 µM; in the experiment with SK-MEL-5 melanoma, 16.1 µM; in the experiment on HCC-2998 colon it was 16.6 µM. Further, the TGI in the experiment on CCRF-CEM leukemia is 64.9 µM; in the experiment on HS 578T breast it was 79.7 µM; in the experiment with SK-MEL-2 melanoma, 33.9 µM; in the experiment with HCT-116 colon, 15.4 µM; in the experiment on UO-31 renal it was 27.6 µM; in the experiment with IGROV1 ovarian, 27.8 µM. The TGI in the experiment with SN12C renal came out at 32.1 µM; with SK-MEL-5 melanoma it was 30.5 µM; in the experiment with HCC-2998 colon, 30.7 µM.

In the case of `Nc1ncnc2c1ncn2Cc1ccc(C23CC4CC(CC(C4)C2)C3)c(OCc2cc(F)c(F)cc2F)c1`, the GI50 with CCRF-CEM leukemia is 2.4 µM; with HS 578T breast, 52 µM; in the experiment on SK-MEL-2 melanoma it was more than 100 µM; in the experiment with HCT-116 colon, 3.08 µM; with IGROV1 ovarian, 7.54 µM; with SN12C renal it was 11.7 µM. Also, the GI50 was 0.955 µM with SK-MEL-5 melanoma and 6.26 µM in the experiment on HCC-2998 colon. Besides, the TGI in the experiment with CCRF-CEM leukemia is 6.84 µM; in the experiment on HS 578T breast it was more than 100 µM; in the experiment with SK-MEL-2 melanoma, more than 100 µM; in the experiment on HCT-116 colon, 13.2 µM; with IGROV1 ovarian it was more than 100 µM; in the experiment on SN12C renal, 67.5 µM. For the same molecule, the TGI in the experiment with SK-MEL-5 melanoma is more than 100 µM; with HCC-2998 colon, 57.8 µM.

As to `Cc1cc(NCCCNc2ccnc3cc(Cl)ccc23)nc(N2CCN(C)CC2)n1`, the GI50 in the experiment with CCRF-CEM leukemia is 2.59 µM; in the experiment with HS 578T breast, 12.4 µM; with HCT-116 colon it was 2.22 µM; in the experiment with UO-31 renal, 4.05 µM; in the experiment on IGROV1 ovarian, 8.14 µM; in the experiment on SN12C renal it was 4.76 µM. Besides, the figures for the GI50 with SK-MEL-5 melanoma, in the experiment on M14 melanoma and with HCC-2998 colon were 1.67 µM, 1.94 µM and 2.36 µM, respectively. Moreover, the TGI was 14.7 µM with CCRF-CEM leukemia; 36.9 µM in the experiment on HS 578T breast; 13 µM in the experiment with HCT-116 colon; 24 µM in the experiment with UO-31 renal; 39.9 µM with IGROV1 ovarian; 33.9 µM in the experiment with SN12C renal. For the same molecule, the TGI in the experiment with SK-MEL-5 melanoma was found to be 3.24 µM; in the experiment with M14 melanoma, 3.61 µM; in the experiment on HCC-2998 colon, 11.1 µM.

As to `O=C1C2C(C(=O)[N]1[Hg][c]1cccs1)C1(Cl)C(Cl)=C(Cl)C2(Cl)C1(Cl)Cl` (centres undefined), the GI50 in the experiment with CCRF-CEM leukemia is 0.29 µM; in the experiment with HS 578T breast, 2.41 µM; in the experiment on SK-MEL-2 melanoma it was 1.56 µM; in the experiment with HCT-116 colon, 1.25 µM; with UO-31 renal, 1.74 µM; with IGROV1 ovarian, 1.29 µM. Further, the GI50 in the experiment on SK-MEL-5 melanoma is 1.55 µM; with M14 melanoma, 1.14 µM; in the experiment on HCC-2998 colon, 1.97 µM. Moreover, the TGI in the experiment on HS 578T breast was 11.5 µM; with SK-MEL-2 melanoma, 3.23 µM; in the experiment on HCT-116 colon, 2.54 µM; in the experiment with UO-31 renal, 3.21 µM; in the experiment on IGROV1 ovarian, 3.52 µM; in the experiment on SK-MEL-5 melanoma it was 3.06 µM. The figures for the TGI with M14 melanoma and in the experiment on HCC-2998 colon were 2.68 µM and 3.59 µM, respectively.

As to `Cc1ccc(NC(=O)Cc2ccc(/C=C/C(=O)c3ncc[nH]3)cc2)cc1`, the GI50 with CCRF-CEM leukemia was 4.67 µM; with HS 578T breast it was 13.6 µM; in the experiment with SK-MEL-2 melanoma, 18.1 µM; in the experiment with HCT-116 colon, 3.28 µM; with UO-31 renal, 3.01 µM; in the experiment with IGROV1 ovarian, 6.47 µM. Besides, the figures for the GI50 in the experiment on SN12C renal, with SK-MEL-5 melanoma and with HCC-2998 colon were 5.91 µM, 18.3 µM and 6.73 µM, respectively. The TGI with CCRF-CEM leukemia is more than 25 µM; in the experiment with HS 578T breast it was more than 25 µM; in the experiment on SK-MEL-2 melanoma, more than 25 µM; with HCT-116 colon, 9.59 µM; with UO-31 renal, 14.2 µM; with IGROV1 ovarian, more than 25 µM. Besides, the TGI in the experiment on SN12C renal, with SK-MEL-5 melanoma and in the experiment with HCC-2998 colon was more than 25 µM each time.

Take `COc1cc2c3c(n(CCCN(CCN)CCCn4c5c(c6cc(OC)c(OC)cc6c4=O)C(=O)c4cc6c(cc4-5)OCO6)c(=O)c2cc1OC)-c1cc2c(cc1C3=O)OCO2`: the GI50 in the experiment with CCRF-CEM leukemia was 0.116 µM; in the experiment with HS 578T breast it was 12.6 µM; in the experiment with SK-MEL-2 melanoma, 21.1 µM; with HCT-116 colon, 0.837 µM; with UO-31 renal, 0.892 µM; in the experiment on SN12C renal it was 0.141 µM. The GI50 with SK-MEL-5 melanoma is 1.04 µM; with M14 melanoma, 0.752 µM; in the experiment on HCC-2998 colon, 0.407 µM. Further, the TGI is 0.407 µM in the experiment with CCRF-CEM leukemia; more than 100 µM in the experiment with HS 578T breast; more than 100 µM with SK-MEL-2 melanoma; 3.25 µM in the experiment with HCT-116 colon; 8.18 µM with UO-31 renal; 0.755 µM with SN12C renal. Further, the TGI in the experiment on SK-MEL-5 melanoma was 3.34 µM; with M14 melanoma it was 18.3 µM; in the experiment on HCC-2998 colon it was 5.98 µM.

Regarding `O=C(Nc1ccc(F)cc1)Nc1ccccc1CNc1nc(Nc2ccc(OCCN3CCCC3)cc2)ncc1Cl`, the GI50 was 1.6 µM with CCRF-CEM leukemia; 0.99 µM with HS 578T breast; 8.7 µM in the experiment with SK-MEL-2 melanoma; 0.742 µM in the experiment on UO-31 renal; 5.27 µM with IGROV1 ovarian; 0.984 µM in the experiment with SN12C renal. Also, the GI50 in the experiment on SK-MEL-5 melanoma is 1.55 µM; in the experiment on M14 melanoma, 0.946 µM; in the experiment with HCC-2998 colon, 2.73 µM. Besides, the TGI came out at 5.93 µM in the experiment on CCRF-CEM leukemia; 2.58 µM with HS 578T breast; 18.4 µM in the experiment with SK-MEL-2 melanoma; 1.49 µM with UO-31 renal; 13.3 µM in the experiment with IGROV1 ovarian; 2.01 µM in the experiment on SN12C renal. Also, the TGI with SK-MEL-5 melanoma came to 4.98 µM; in the experiment with M14 melanoma, 2 µM; in the experiment with HCC-2998 colon, 9.27 µM.
